Laboratory results reported in US5610319A, “Compound useful as antiproliferative agents and GARFT inhibitors” (Agouron Pharmaceuticals, Inc., priority 1995, dated 1997).

What was measured:
GARFT = conditions: cited from earlier work
L1210 = assay: In vitro growth inhibition, L1210, MTT, Example 2; type: cell-based; conditions: Mus musculus, Continuous (72-hour) exposure, mean IC50, read-out: IC50 Cell Culture L1210
Method: All cultures were maintained at 37° C., 5% air-CO2 in a humidified incubator.
Stock solutions of the inhibitors were prepared in 10 mM sodium bicarbonate in water and stored in 1 ml aliquots at -20° C. for cell culture experiments. Cell growth inhibition was measured by a modification of the method of Mosmann, J. Immunol. Methods 65 (1983), 55-63.
Mid-log phase cells of each cell line were diluted to 18,500 cells/ml in fresh RPMI growth medium (Mediatech, Washington, DC) supplemented with dialyzed fetal calf serum (Hyclone Laboratories Inc., Logan, Utah) and then aliquotted into columns 2 through 12 of 96-well microtiter plates. Column 1 was filled with the same volume ([…]) of fresh medium, without cells, for use as a blank. The plates were then placed in a 37° C., 5% air-CO2 incubator. After 1 to 4 hours, plates were removed from the incubator followed by addition of Compound (21) at 10×final concentration, […] in binary dilutions, to columns 12 to 4. […] The extent of metabolized MTT was measured spectrophotometrically at 540 nm on a Molecular Devices Vmax™ kinetic microplate reader. The concentration of drug required to reduce cell growth by 50% as measured by MTT metabolism was determined by interpolation between the O.D. (minus blank) immediately above and below 50% of control O.D. (minus blank). […]

6C3HED lymphosarcoma = assay: In vivo antitumor activity, 6C3HED lymphosarcoma; set-up: species or system C3H/He female mice; conditions: intraperitoneal, once daily for nine days; for % Inhibition: tumor mass day 11
Method: (§1) On day zero, 2 mm^2 trocar fragments of 6C3HED lymphosarcoma were implanted subcutaneously in the axillary region into groups of six C3H/He female mice. Starting on day 1, the test compound was administered intraperitoneally in 40% Encapsin given once daily for nine days. Control animals received identical treatment without test compound. The percentage inhibition given in Table 5 below was calculated by comparing the mass of the control tumors (receiving diluent only) on day 11 to those of animals receiving test compound.

[1] = system: C3H/BA mammary adenocarcinoma; assay: In vivo antitumor activity, C3H/BA mammary adenocarcinoma; set-up: species or system C3H/He female mice; conditions: intraperitoneal, once daily for nine days, tumor mass day 14
Method: as §1, with “C3H/BA mammary adenocarcinoma” for “6C3HED lymphosarcoma”, “percentage of” for “percentage”, “inhibition” for “inhibition given in Table 5 below”, “14” for “11”

Compound: Nc1nc2c(c(=O)[nH]1)CC(CCc1ccc(C(=O)N[C@@H](CCC(=O)O)C(=O)O)cc1)CN2 (some centres unmarked) [5,10-dideazatetrahydrofolic acid]
- GARFT inhibition (GARFT): specific tight binding inhibitor of GARFT

Compound: Nc1nc2c(c(=O)[nH]1)SC(CCc1ccc(C(=O)N[C@@H](CCC(=O)O)C(=O)O)s1)CN2 (stereo partly drawn) [Compound 21, 4-[2-(2-Amino-4-oxo-4,6,7,8-tetrahydro-3H-pyrimido[5,4-6][1,4]thiazin-6-yl)-ethyl]-2,5-thienoylamino-L-glutamic acid]
- IC50 (L1210): 0.016 µM
- % Inhibition (6C3HED lymphosarcoma; 12.5 mg/kg): 100%
- % Inhibition (6C3HED lymphosarcoma; 25 mg/kg): 100%
- % Inhibition (given as toxic) (6C3HED lymphosarcoma; 50 mg/kg, day 11): toxic
- % Inhibition ([1]; 5 mg/kg): 16%
- % Inhibition ([1]; 10 mg/kg): 84%
- % Inhibition ([1]; 20 mg/kg): 100%
